From patent publication US12492188B2, “1H-benzo[D]imidazole derivatives as TLR9 inhibitors for the treatment of fibrosis” (BRISTOL-MYERS SQUIBB COMPANY, priority 2020, dated 2025) come the findings set out here.

Read-outs that look alike come from different tables or passages of the source.

What all share (type): cell-based
In test [1] the target is T1, human TLR8 (Homo sapiens, UniProt Q9NR97).
T1 construct: host or cells: HEK-Blue cells (HEK293-derived reporter line)
T1 sequence (Q9NR97 27-1041): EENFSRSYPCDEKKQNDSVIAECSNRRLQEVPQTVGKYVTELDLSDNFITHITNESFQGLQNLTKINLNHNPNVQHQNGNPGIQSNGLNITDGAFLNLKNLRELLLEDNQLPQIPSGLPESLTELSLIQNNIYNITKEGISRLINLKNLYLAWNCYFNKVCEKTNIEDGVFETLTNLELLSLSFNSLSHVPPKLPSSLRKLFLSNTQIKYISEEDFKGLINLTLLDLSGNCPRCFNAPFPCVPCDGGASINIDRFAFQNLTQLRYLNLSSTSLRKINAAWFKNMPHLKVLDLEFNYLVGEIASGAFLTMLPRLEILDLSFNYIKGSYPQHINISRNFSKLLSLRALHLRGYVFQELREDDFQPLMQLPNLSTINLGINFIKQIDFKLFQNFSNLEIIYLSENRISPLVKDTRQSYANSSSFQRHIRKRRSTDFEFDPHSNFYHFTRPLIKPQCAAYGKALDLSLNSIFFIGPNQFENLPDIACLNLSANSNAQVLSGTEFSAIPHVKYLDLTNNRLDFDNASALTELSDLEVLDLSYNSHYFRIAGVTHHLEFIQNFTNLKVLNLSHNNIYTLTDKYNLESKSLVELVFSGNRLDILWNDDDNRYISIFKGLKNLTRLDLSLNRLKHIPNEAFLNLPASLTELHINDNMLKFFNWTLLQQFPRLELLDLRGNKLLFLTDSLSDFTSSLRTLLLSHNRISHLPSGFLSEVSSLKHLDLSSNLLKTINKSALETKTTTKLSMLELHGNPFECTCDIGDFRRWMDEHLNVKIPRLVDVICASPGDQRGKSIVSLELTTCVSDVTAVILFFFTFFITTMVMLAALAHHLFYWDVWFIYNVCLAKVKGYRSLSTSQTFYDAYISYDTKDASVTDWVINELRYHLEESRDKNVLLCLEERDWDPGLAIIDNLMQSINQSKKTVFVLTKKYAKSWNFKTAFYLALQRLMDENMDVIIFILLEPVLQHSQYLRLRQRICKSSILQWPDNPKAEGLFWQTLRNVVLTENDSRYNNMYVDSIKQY
Briefly: TLR8 inhibition reporter assay (HEK-Blue cells, secreted embryonic alkaline phosphatase reporter). To be noted: HEK-Blue cells overexpressing human TLR8, stimulated with R848 15.9 μM; read-out: TLR 8 IC50. The method, boiled down:
(§1)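 Agonist-driven SEAP output was measured in HEK-Blue reporter cells carrying human TLR7 (gardiquimod 7.5 μM), TLR8 (R848 15.9 μM) or TLR9 (ODN2006 5 nM). Compounds at 0.05 nM–50 μM final were added 30 min before stimulation at room temperature. After 22 h at 37 °C, percent inhibition was taken against agonist/DMSO wells and a reference inhibitor.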

Test [2] concerns the target T2, human TLR9 (Homo sapiens, UniProt Q9NR96).
T2 construct: host or cells: HEK-Blue cells (HEK293-derived reporter line)
T2 sequence (Q9NR96 26-1032): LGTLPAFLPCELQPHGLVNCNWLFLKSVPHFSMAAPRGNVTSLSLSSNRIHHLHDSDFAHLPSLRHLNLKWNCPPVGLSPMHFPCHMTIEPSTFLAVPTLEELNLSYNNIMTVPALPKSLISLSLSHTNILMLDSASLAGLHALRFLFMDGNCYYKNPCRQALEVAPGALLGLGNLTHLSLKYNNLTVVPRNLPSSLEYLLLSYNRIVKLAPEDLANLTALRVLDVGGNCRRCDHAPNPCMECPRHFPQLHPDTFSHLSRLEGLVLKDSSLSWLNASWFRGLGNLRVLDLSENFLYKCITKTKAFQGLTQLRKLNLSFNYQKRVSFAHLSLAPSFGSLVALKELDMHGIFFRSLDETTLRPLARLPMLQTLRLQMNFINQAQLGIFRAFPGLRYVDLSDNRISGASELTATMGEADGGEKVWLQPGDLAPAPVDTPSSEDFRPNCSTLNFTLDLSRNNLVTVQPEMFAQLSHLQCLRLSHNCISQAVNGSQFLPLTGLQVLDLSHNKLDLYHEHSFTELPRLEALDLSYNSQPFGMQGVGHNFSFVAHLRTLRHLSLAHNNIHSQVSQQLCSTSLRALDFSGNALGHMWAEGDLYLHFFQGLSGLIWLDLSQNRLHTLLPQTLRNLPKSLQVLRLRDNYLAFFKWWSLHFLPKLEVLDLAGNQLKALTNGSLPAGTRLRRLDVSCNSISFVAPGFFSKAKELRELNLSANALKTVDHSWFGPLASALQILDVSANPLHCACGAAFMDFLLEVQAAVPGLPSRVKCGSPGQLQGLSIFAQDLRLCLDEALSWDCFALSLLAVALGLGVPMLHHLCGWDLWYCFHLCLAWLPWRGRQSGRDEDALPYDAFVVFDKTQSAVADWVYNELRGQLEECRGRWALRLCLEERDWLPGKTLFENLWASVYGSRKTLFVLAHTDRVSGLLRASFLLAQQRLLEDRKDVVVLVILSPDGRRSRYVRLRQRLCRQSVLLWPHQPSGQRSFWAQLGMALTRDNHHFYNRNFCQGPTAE
Nature of the test: TLR9 inhibition reporter assay (HEK-Blue cells, secreted embryonic alkaline phosphatase reporter). To be noted: HEK-Blue cells overexpressing human TLR9, stimulated with ODN2006 5 nM. A digest of the protocol:
as §1
In general terms: A reporter such as luciferase makes a cellular process visible.

Test [3] deals with T3, human TLR7 (Homo sapiens, UniProt Q9NYK1).
T3 construct: host or cells: HEK-Blue cells (HEK293-derived reporter line)
T3 sequence (Q9NYK1 27-1049): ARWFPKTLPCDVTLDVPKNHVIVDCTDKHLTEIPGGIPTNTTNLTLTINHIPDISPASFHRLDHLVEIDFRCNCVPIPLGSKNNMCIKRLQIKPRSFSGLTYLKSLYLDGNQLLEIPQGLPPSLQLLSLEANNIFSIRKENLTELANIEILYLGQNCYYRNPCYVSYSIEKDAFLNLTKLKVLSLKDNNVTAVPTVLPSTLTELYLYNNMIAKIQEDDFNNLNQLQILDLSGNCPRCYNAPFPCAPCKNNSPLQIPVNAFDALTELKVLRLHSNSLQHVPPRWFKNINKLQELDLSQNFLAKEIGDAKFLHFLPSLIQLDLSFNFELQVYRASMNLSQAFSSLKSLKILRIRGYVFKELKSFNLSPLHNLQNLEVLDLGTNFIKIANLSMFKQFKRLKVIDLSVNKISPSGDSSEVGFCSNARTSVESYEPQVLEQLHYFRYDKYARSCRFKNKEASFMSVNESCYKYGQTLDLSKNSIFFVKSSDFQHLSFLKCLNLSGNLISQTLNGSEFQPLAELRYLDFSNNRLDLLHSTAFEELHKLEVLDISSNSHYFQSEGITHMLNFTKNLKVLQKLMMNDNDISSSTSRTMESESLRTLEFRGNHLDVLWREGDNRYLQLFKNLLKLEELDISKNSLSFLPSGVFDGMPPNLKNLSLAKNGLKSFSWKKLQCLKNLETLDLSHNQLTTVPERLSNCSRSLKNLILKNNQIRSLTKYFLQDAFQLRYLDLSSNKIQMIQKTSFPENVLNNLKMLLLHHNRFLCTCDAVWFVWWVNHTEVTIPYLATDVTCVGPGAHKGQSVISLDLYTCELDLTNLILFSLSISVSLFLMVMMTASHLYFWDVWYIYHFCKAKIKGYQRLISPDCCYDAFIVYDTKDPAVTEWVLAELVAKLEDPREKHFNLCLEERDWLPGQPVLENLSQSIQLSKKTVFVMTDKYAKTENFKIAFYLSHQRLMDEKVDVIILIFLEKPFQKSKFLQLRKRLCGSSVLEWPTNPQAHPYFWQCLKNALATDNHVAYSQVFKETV
Nature of the test: TLR7 inhibition reporter assay (HEK-Blue cells, secreted embryonic alkaline phosphatase reporter). Particulars: HEK-Blue cells overexpressing human TLR7, stimulated with gardiquimod 7.5 μM; read-out: TLR 7 IC50. A digest of the protocol: as §1

Setting [4] is: 22 hour incubation, reporter readout.

Take `COc1ccc(-c2nc3c(C)cc(C4CCN(C5CC6(C5)CN(C5CCC5)C6)CC4)cc3n2C)cc1OC` [Example 49, 6-(1-(2-cyclobutyl-2-azaspiro[3.3]heptan-6-yl)piperidin-4-yl)-2-(3,4-dimethoxyphenyl)-1,4-dimethyl-1H-benzo[d]imidazole]: the IC50 is above 50000 nM in test [1], 65 nM in test [2] (setting [4]), 65 nM in test [2] (read-out: TLR 9 IC50) and 5800 nM in test [3].
In the case of `COc1ccc(-c2nc3c(C)cc(C4CC5CCC(C4)N5C4CCN(CC(C)C)CC4)cc3n2C)cc1OC` (centres unmarked) [Example 50, 2-(3,4-dimethoxyphenyl)-6-(8-(1-isobutylpiperidin-4-yl)-8-azabicyclo[3.2.1]octan-3-yl)-1,4-dimethyl-1H-benzo[d]imidazole], the IC50 is above 50000 nM in test [1], 23 nM in test [2] (setting [4]), 23 nM in test [2] (read-out: TLR 9 IC50) and 2900 nM in test [3].
As to `COc1ccc(-c2nc3c(C)cc(C4CC5CCC(C4)N5C4CCN(C5CC5)CC4)cc3n2C)cc1OC` (centres unmarked) [Example 51, 6-(8-(1-cyclopropylpiperidin-4-yl)-8-azabicyclo[3.2.1]octan-3-yl)-2-(3,4-dimethoxyphenyl)-1,4-dimethyl-1H-benzo[d]imidazole], the 50% inhibitory concentration (IC50) in test [1] is above 50000 nM; in test [2] (setting [4]), 130 nM; in test [2] (read-out: TLR 9 IC50) it was 130 nM; in test [3] it was 20000 nM.
With `Cc1cc(C2CCN(C3CCN(CC(C)C)CC3)CC2)cc2c1nc(-c1ccc(S(C)(=O)=O)cc1)n2C` [Example 52, 6-(1′-isobutyl-[1,4′-bipiperidin]-4-yl)-1,4-dimethyl-2-(4-(methylsulfonyl)phenyl)-1H-benzo[d]imidazole], the half-inhibitory concentration (IC50) is above 50000 nM in test [1], 130 nM in test [2] (setting [4]), 129 nM in test [2] (read-out: TLR 9 IC50) and 4800 nM in test [3].
In the case of `Cc1cc(C2CCN(C3CCN(C4CC4)CC3)CC2)cc2c1nc(-c1ccc(S(C)(=O)=O)cc1)n2C` [Example 53, 6-(1′-cyclopropyl-[1,4′-bipiperidin]-4-yl)-1,4-dimethyl-2-(4-(methylsulfonyl)phenyl)-1H-benzo[d]imidazole], the IC50 in test [1] was above 50000 nM; in test [2] (setting [4]), 420 nM; in test [2] (read-out: TLR 9 IC50) it was 421 nM; in test [3] it was 24000 nM.
Turning to `COc1ccc(-c2nc3c(C)cc(C4CCN(C5CCN(CC(C)C)CC5)CC4)cc3n2C)cc1F` [Example 54, 2-(3-fluoro-4-methoxyphenyl)-6-(1′-isobutyl-[1,4′-bipiperidin]-4-yl)-1,4-dimethyl-1H-benzo[d]imidazole], the IC50 in test [1] was above 50000 nM; in test [2] (setting [4]), 130 nM; in test [2] (read-out: TLR 9 IC50), 131 nM; in test [3], 7700 nM.
On the same counts, the results for `COc1ccc(-c2nc3c(C)cc(C4CCN(C5CCN(C6CC6)CC5)CC4)cc3n2C)cc1F` [Example 55, 6-(1′-cyclopropyl-[1,4′-bipiperidin]-4-yl)-2-(3-fluoro-4-methoxyphenyl)-1,4-dimethyl-1H-benzo[d]imidazole] are above 50000 nM, 140 nM, 140 nM and 9300 nM.
On the same counts, the results for `COc1ccc(-c2nc3c(C)cc(C4CCN(C5CCN(CC(C)C)CC5)CC4)cc3[nH]2)cc1F` [Example 56, 2-(3-fluoro-4-methoxyphenyl)-6-(1′-isobutyl-[1,4′-bipiperidin]-4-yl)-4-methyl-1H-benzo[d]imidazole] are above 50000 nM, 50 nM, 50 nM and 3200 nM.
Take `COc1ccc(-c2nc3c(C)cc(C4CCN(C5CCN(C6CC6)CC5)CC4)cc3[nH]2)cc1F` [Example 57, 6-(1′-cyclopropyl-[1,4′-bipiperidin]-4-yl)-2-(3-fluoro-4-methoxyphenyl)-4-methyl-1H-benzo[d]imidazole]: the IC50 in test [1] is above 50000 nM; in test [2] (setting [4]) it was 170 nM; in test [2] (read-out: TLR 9 IC50), 171 nM; in test [3], 16000 nM.
On the same counts, the results for `Cc1cc(C2CCN(C3CCN(CC(C)C)CC3)CC2)cc2[nH]c(-c3ccc(S(C)(=O)=O)cc3)nc12` [Example 58, 6-(1′-isobutyl-[1,4′-bipiperidin]-4-yl)-4-methyl-2-(4-(methylsulfonyl)phenyl)-1H-benzo[d]imidazole tris(2,2,2-trifluoroacetate)] are above 50000 nM, 47 nM, 47 nM and 3100 nM.
For `Cc1cc(C2CCN(C3CCN(CC(C)C)CC3)CC2)cc2[nH]c(-c3ccnc4ccccc34)nc12` [Example 59, 4-(6-(1′-isobutyl-[1,4′-bipiperidin]-4-yl)-4-methyl-1H-benzo[d]imidazol-2-yl)quinoline], the concentration for half-maximal inhibition (IC50) in test [1] was above 50000 nM; in test [2] (setting [4]), 100 nM; in test [2] (read-out: TLR 9 IC50) it was 100 nM; in test [3], 3800 nM.

One may read the IC50 as the point on the concentration scale where inhibition reaches its midpoint.
